The subject of assay [1] is CD25 negative subset (conventional T cells). The experiment in a line: in vitro expansion of FACS-sorted splenic CD4+CD25- cells. The format is cell-based, murine. The conditions noted are these: TCR stimulation with anti-CD3 and anti-CD28 antibodies. From the text:
(§1) Initially, and in order to characterize the in vitro effects of IGF-1 on the different populations of the […] immune system, murine splenic CD4 positive cells were sorted by FACS based on the expression of CD25. This allows for the separation and enrichment of conventional T cells (CD25 negative) and regulatory T cells (CD25 positive). […] To exclude the possibility that the observed expansion was due to the anti-apoptotic properties of IGF-1, the cells in culture were stained with AnnexinV (a marker of apoptosis) and a vital dye, and then analyzed by flow cytometry.

The subject of a further assay is CD25+ splenic CD4+ cells. The experiment in a line: in vitro expansion of FACS-sorted splenic CD4+CD25+ cells. The format is cell-based, murine. The conditions noted are these: TCR stimulation with anti-CD3 and anti-CD28 antibodies. As for the experimental part:
In a preferred embodiment for expanding Treg cells in vitro/ex vivo, IGF-1 is added at a certain concentration (e.g. between 1 and 100 ng/ml) in a medium that allows for the cells to survive and grow (e.g. in mice, RPM1 1640 plus 10% fetal calf serum plus other additives including beta-mercaptoethanol, Sodium Pyruvate, Penicillin/Streptomycin, L-Glutamine or equivalent defined media). Additionally, T cells are stimulated with anti-CD3. The costimulatory agent is an antibody or ligand specific for a TCR costimulator, such as CD28 (like in example 1) or GITR, as described below.
In animal experiments, the population is isolated normally from murine spleen (but also could be isolated from other tissues, like for example but not restricted to bone marrow, adipose tissue, cord blood derived mononuclear cell, thymus, or peripheral blood) and is sorted using different markers (e.g., CD4 and CD25). This population is defined as CD4+CD25+ and includes the regulatory cells. This population is then treated in the above-mentioned medium in the presence of IGF-1. After several days of culture part of the cells are counted, fixed, permeabilized and analyzed by flow cytometry using an anti-FOXP3 antibody in combination with the same extracellular markers (CD4 and CD25). This allows for the determination of the absolute number of FOXP3 positive cells present in the culture. […]

For the next assay, the system named is DSS-induced colitis. Briefly: DSS-induced colitis, systemic IGF-1 delivery. The format is in vivo, mice. The source says: In this example the inventors examined the ability of IGF-1 to suppress inflammation in a mouse model for IBD (DSS-induced colitis, Wirtz et al, 2007). Mice ingested DSS for 7 days and developed an acute colitis. […] This difference in weight with respect to their respective control group was maintained during the duration of the IGF-1 treatment (FIG. 31).
Administration of DSS in several cycles results in chronic colitis (Wirtz et al., 2007). To also test if the protective effects of IGF-1 lasted beyond the IGF-1 treatment, mice were administered DSS for another cycle at day 37. […] To further confirm that the observed effects were a consequence of colonic inflammation the inventors performed a histochemical analysis of the colon (FIG. 33). DSS-treated mice presented enlargement of the muscle, mucosa and subepithelial layer and foci of infiltrating cell, the main mediators of inflammation. In contrast, DSS-colitis mice receiving IGF-1 during the initial phase of the treatment for a total of 28 days were protected and did no show this prolonged infiltration of leukocytes. Quantification of these histological parameters (FIG. 34) further confirmed the significant long-term protection in IGF-pretreated mice.

Assay [2] concerns CD4+CD25- cells (T conventional cells). The experiment in a line: Annexin V / living dye apoptosis flow cytometry, CD4+CD25- cells. The format is cell-based, murine.
Excerpt: The effects of IGF-1 on apoptosis can be measured by flow cytometry. By using a combination of a living dye and Annexin V staining it is possible to determine four different cell populations which correspond to non-apoptotic, necrotic, early and late apoptosis.
as §1
A general note: In flow cytometry, cells or beads pass a laser one at a time.

Regarding Insulin-like growth factor-1 [IGF-1], the “in vitro expansion of CD25 negative subset” value in assay [1] is reported as “no reproducible effect”. For the same substance, the “in vitro expansion of CD25 positive subset” value in the assay on CD25+ splenic CD4+ cells is reported as “consistently promoted the in vitro expansion”. Besides, in the assay on DSS-induced colitis (IGF-1 for 28 days in initial phase, after re-challenge), the “histological signs of colitis, infiltration of leukocytes” value is “protected”. For the same substance, the body weight loss entry with DSS-induced colitis (acute phase, DSS for 7 days) is recorded as “showed protection”. For the same substance, in the assay on DSS-induced colitis (after re-challenge, versus DSS-only mice, P=0.0004), the “thickness of the subepithelial layer of the colon” value is recorded as “significant reduction”. Moreover, the “thickness of the mucosa of the colon” value in the assay on DSS-induced colitis (after re-challenge, versus DSS-only mice, P=0.0007) is “significant reduction”. Besides, the “thickness of the muscle layer of the colon” value in the assay on DSS-induced colitis (after re-challenge, versus DSS-only mice, P=0.053) is reported as “significant reduction”. Moreover, the “difference in weight with respect to control group” value in the assay on DSS-induced colitis (during the duration of the IGF-1 treatment) was “maintained”. The “body weight loss after DSS re-challenge” value in the assay with DSS-induced colitis (second DSS cycle at day 37, no rhIGF-1 delivered in this period) is given as “complete protection”. The protection from apoptosis entry in assay [2] was “partially protected from apoptosis”.

Values taken from patent US20140286906A1, “USE OF IGF-1 IN THE MODULATION OF TREG CELL ACTIVITY AND THE TREATMENT AND PREVENTION OF AUTOIMMUNE DISORDERS OR DISEASES” (priority 2011, published 2014).
